Results on 22 compounds are retold here after patent US9029531B2 (Agios Pharmaceuticals, Inc., priority 2012, dated 2015).

One may read the IC50 as the concentration that inhibits the measured activity by half. Read a high IC50 as weaker potency.

Some results are limits rather than exact numbers.

The experiment has as its target T1, glutaminase (GAC) (Homo sapiens, UniProt O94925).
T1 sequence (O94925 55-598 isoform O94925-3 limits assumed): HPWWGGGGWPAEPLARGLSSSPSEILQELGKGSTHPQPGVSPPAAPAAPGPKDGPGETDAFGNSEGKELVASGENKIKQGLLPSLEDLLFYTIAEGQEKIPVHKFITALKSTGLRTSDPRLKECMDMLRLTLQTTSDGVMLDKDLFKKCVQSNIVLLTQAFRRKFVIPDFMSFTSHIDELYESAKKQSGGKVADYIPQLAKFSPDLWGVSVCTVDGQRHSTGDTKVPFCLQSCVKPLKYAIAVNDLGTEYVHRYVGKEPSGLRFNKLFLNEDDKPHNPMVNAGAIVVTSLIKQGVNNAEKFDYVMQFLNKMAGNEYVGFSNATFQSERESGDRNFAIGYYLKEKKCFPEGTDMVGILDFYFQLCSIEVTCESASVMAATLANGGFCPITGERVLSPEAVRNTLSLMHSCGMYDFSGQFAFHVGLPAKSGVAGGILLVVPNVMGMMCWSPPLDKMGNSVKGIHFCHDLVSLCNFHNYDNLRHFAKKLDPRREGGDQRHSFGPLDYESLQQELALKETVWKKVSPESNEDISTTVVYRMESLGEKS
The experiment in a line: Glutaminase coupled endpoint enzymatic assay (Example A). Type of experiment: biochemical. Particulars: inhibition of glutaminase; assay of Example A or Example B. In a few lines:
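Endpoint coupled assay: glutamate formed by GAC drives GDH NADH production, recycled by diaphorase reducing resazurin to fluorescent resorufin (Ex544/Em590) after SDS stop. Buffer pH 8.5 with phosphate; glutamine at Km; enzyme preincubated with compound 60 min at room temperature.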
For `O=C(Cc1cccc(N2CC(F)(F)C2)n1)Nc1nnc([C@H]2CCC[C@H](c3nnc(NC(=O)Cc4cccc(N5CC(F)(F)C5)n4)s3)C2)s1` [Compound 268, N,N′-(5,5′-((1S,3S)-cyclohexane-1,3-diyl)bis(1,3,4-thiadiazole-5,2-diyl))bis(2-(6-(3,3-difluoroazetidin-1-yl)pyridin-2-yl)acetamide)], the IC50 was under 100 nM.

Regarding `O=C(Cc1cccc(N2CC(F)(F)C2)c1)Nc1nnc([C@H]2CCC[C@H](c3nnc(NC(=O)Cc4cccc(N5CC(F)(F)C5)c4)s3)C2)s1` [Compound 269], the IC50 was 100 to 500 nM. Then `COC1CN(c2cccc(CC(=O)Nc3nnc([C@H]4CCC[C@H](c5nnc(NC(=O)Cc6cccc(N7CC(OC)C7)n6)s5)C4)s3)n2)C1` [Compound 270, N,N′-(5,5′-((1S,3S)-cyclohexane-1,3-diyl)bis(1,3,4-thiadiazole-5,2-diyl))bis(2-(6-(3-methoxyazetidin-1-yl)pyridin-2-yl)acetamide)], with under 100 nM; and `O=C(Cc1ccc(N2CC(F)(F)C2)nc1)Nc1nnc([C@H]2CCC[C@H](c3nnc(NC(=O)Cc4ccc(N5CC(F)(F)C5)nc4)s3)C2)s1` [Compound 271, N,N′-(5,5′-((1S,3S)-cyclohexane-1,3-diyl)bis(1,3,4-thiadiazole-5,2-diyl))bis(2-(6-(3,3-difluoroazetidin-1-yl)pyridin-3-yl)acetamide)], with under 100 nM. Then `O=C(Cc1cccc(C2CCNCC2)c1)Nc1nnc([C@H]2CCC[C@H](c3nnc(NC(=O)Cc4cccc(C5CCNCC5)c4)s3)C2)s1` [Compound 272, N,N′-(5,5′-((1S,3S)-cyclohexane-1,3-diyl)bis(1,3,4-thiadiazole-5,2-diyl))bis(2-(3-(piperidin-4-yl)phenyl)acetamide)], with under 100 nM. The value for `O=C(Cc1c[nH]cn1)Nc1nnc([C@H]2CCC[C@H](c3nnc(NC(=O)Cc4c[nH]cn4)s3)C2)s1` [Compound 273, N,N′-(5,5′-((1S,3S)-cyclohexane-1,3-diyl)bis(1,3,4-thiadiazole-5,2-diyl))bis(2-(1H-imidazol-4-yl)acetamide)] was under 100 nM; that for `Nc1nc(CC(=O)Nc2nnc([C@H]3CCC[C@H](c4nnc(NC(=O)Cc5csc(N)n5)s4)C3)s2)cs1` [Compound 274, N,N′-(5,5′-((1S,3S)-cyclohexane-1,3-diyl)bis(1,3,4-thiadiazole-5,2-diyl))bis(2-(2-aminothiazol-4-yl)acetamide)] was under 100 nM. `CNc1nc(CC(=O)Nc2nnc([C@H]3CCC[C@H](c4nnc(NC(=O)Cc5csc(NC)n5)s4)C3)s2)cs1` [Compound 275, N,N′-(5,5′-((1S,3S)-cyclohexane-1,3-diyl)bis(1,3,4-thiadiazole-5,2-diyl))bis(2-(2-(methylamino)thiazol-4-yl)acetamide)] had an IC50 of under 100 nM. The value for `O=C(Cc1csc(N2CCOCC2)n1)Nc1nnc([C@H]2CCC[C@H](c3nnc(NC(=O)Cc4csc(N5CCOCC5)n4)s3)C2)s1` [Compound 276, N,N′-(5,5′-((1S,3S)-cyclohexane-1,3-diyl)bis(1,3,4-thiadiazole-5,2-diyl))bis(2-(2-morpholinothiazol-4-yl)acetamide)] was 100 to 500 nM; that for `CN(C)c1nc(CC(=O)Nc2nnc([C@H]3CCC[C@H](c4nnc(NC(=O)Cc5csc(N(C)C)n5)s4)C3)s2)cs1` [Compound 278, N,N′-(5,5′-((1S,3S)-cyclohexane-1,3-diyl)bis(1,3,4-thiadiazole-5,2-diyl))bis(2-(2-(dimethylamino)thiazol-4-yl)acetamide)] was 100 to 500 nM. Then `COc1nc(CC(=O)Nc2nnc([C@H]3CCC[C@H](c4nnc(NC(=O)Cc5csc(OC)n5)s4)C3)s2)cs1` [Compound 279, N,N′-(5,5′-((1S,3S)-cyclohexane-1,3-diyl)bis(1,3,4-thiadiazole-5,2-diyl))bis(2-(2-methoxythiazol-4-yl)acetamide)], with under 100 nM; and `COCCOc1ccc(CC(=O)Nc2nnc([C@H]3CCC[C@H](c4nnc(NC(=O)Cc5cccc(N6CC(F)(F)C6)n5)s4)C3)s2)nc1` [Compound 280, 2-(6-(3,3-difluoroazetidin-1-yl)pyridin-2-yl)-N-(5-((1S,3S)-3-(5-(2-(5-(2-methoxyethoxy)pyridin-2-yl)acetamido)-1,3,4-thiadiazol-2-yl)cyclohexyl)-1,3,4-thiadiazol-2-yl)acetamide], with under 100 nM; and `CC(=O)Nc1nnc([C@H]2CCC[C@H](c3nnc(NC(=O)Cc4cccc(N5CC(F)(F)C5)n4)s3)C2)s1` [Compound 281, N-(5-((1S,3S)-3-(5-acetamido-1,3,4-thiadiazol-2-yl)cyclohexyl)-1,3,4-thiadiazol-2-yl)-2-(6-(3,3-difluoroazetidin-1-yl)pyridin-2-yl)acetamide], with under 100 nM. The compound `CCC(=O)Nc1nnc([C@H]2CCC[C@H](c3nnc(NC(=O)Cc4cccc(N5CC(F)(F)C5)n4)s3)C2)s1` [Compound 282, N-(5-((1S,3S)-3-(5-(2-(6-(3,3-difluoroazetidin-1-yl)pyridin-2-yl)acetamido)-1,3,4-thiadiazol-2-yl)cyclohexyl)-1,3,4-thiadiazol-2-yl)propionamide] gave an IC50 of under 100 nM.

`O=C(Cc1cccc(N2CC(F)(F)C2)n1)Nc1nnc([C@H]2CCC[C@H](c3nnc(NC(=O)C4CC4)s3)C2)s1` [Compound 283] came in with an IC50 of 100 to 500 nM.

As for `COc1ccccc1CC(=O)Nc1nnc([C@H]2CC[C@H](c3nnc(NC(=O)Cc4ccccc4OC)s3)C2)s1` [Compound 284, N,N′-(5,5′-((1S,3S)-cyclopentane-1,3-diyl)bis(1,3,4-thiadiazole-5,2-diyl))bis(2-(2-methoxyphenyl)acetamide)], the IC50 is under 100 nM.

In turn, `CN(C)c1cccc(CC(=O)Nc2nnc([C@H]3CC[C@H](c4nnc(NC(=O)Cc5cccc(N(C)C)c5)s4)C3)s2)c1` [Compound 285, N,N′-(5,5′-((1S,3S)-cyclopentane-1,3-diyl)bis(1,3,4-thiadiazole-5,2-diyl))bis(2-(3-(dimethylamino)phenyl)acetamide)] came in with an IC50 of under 100 nM. As for `COc1ccc(CC(=O)Nc2nnc([C@H]3CC[C@H](c4nnc(NC(=O)Cc5ccc(OC)nc5)s4)C3)s2)cn1` [Compound 286, N,N′-(5,5′-((1S,3S)-cyclopentane-1,3-diyl)bis(1,3,4-thiadiazole-5,2-diyl))bis(2-(6-methoxypyridin-3-yl)acetamide)], the IC50 is under 100 nM. The compound `COc1ccnc(CC(=O)Nc2nnc([C@H]3CC[C@H](c4nnc(NC(=O)Cc5cc(OC)ccn5)s4)C3)s2)c1` [Compound 287] returned an IC50 of under 100 nM. The value for `O=C(Cc1cccc(N2CC(F)(F)C2)n1)Nc1nnc([C@H]2CC[C@H](c3nnc(NC(=O)Cc4cccc(N5CC(F)(F)C5)n4)s3)C2)s1` [Compound 288, N,N′-(5,5′-((1S,3S)-cyclopentane-1,3-diyl)bis(1,3,4-thiadiazole-5,2-diyl))bis(2-(6-(3,3-difluoroazetidin-1-yl)pyridin-2-yl)acetamide)] was under 100 nM. Then `CN(C)c1cccc(CC(=O)Nc2nnc([C@H]3CC[C@H](c4nnc(NC(=O)Cc5cccc(N(C)C)n5)s4)C3)s2)n1` [Compound 289, N,N′-(5,5′-((1S,3S)-cyclopentane-1,3-diyl)bis(1,3,4-thiadiazole-5,2-diyl))bis(2-(6-(dimethylamino)pyridin-2-yl)acetamide)], with 100 to 500 nM; and `O=C(Cc1ccc(C2CCNCC2)cc1)Nc1nnc([C@H]2CCC[C@H](c3nnc(NC(=O)Cc4ccc(C5CCNCC5)cc4)s3)C2)s1` [Compound 290], with under 100 nM.
